From US7557133B2, “Caspase inhibitors containing isoxazoline ring” (LG Life Sciences Ltd., priority 2003, dated 2009) come the findings set out here.

Test [1] relates to hepatic fibrosis. Description: Inhibitory effect against hepatic fibrosis in SD rats (biliary duct ligation, Sirius red staining). In kind it is in vivo, rat. To be noted: BDL rats, 3 or 10 mg/kg orally twice a day for 1 week. On the procedure: Male Spargue-Dawley rats (6 weeks, Korea Biolink) were kept under the conditions of 22 °C, 55% of relative humidity, and light-darkness cycle of 12 hours. Food and water were supplied ad libitum. For the ligation of biliary duct, the rats were anesthetized by inhalation of 1% halothane, abdomen of the rats were cut open, the distal and proximal biliary ducts were ligated, the part between the ligation sites were cut, 2 ml of saline was injected, and sutured. Test compound (Iii) was orally administered in a dosage of 3 mg/kg or 10 mg/kg twice a day. That is, the compound was dissolved in a cosolvent (PEG400:ethanol:Tween80=15:7.5:2.5), diluted with phosphate buffer (pH 7.4) by five times, and administered. To the control group was administered the solution without the test compound. The administration was made for 1 week after 1 week from the ligation of biliary duct. After the administration, the rats were sacrificed. The livers were fixed by 10% neutral formalin and a paraffin section of 5 μm thickness was prepared and stained by 0.1% Sirius red (Direct red 80, Sigma). The tissue section was investigated by an optical microscope to observe the collagen fibers stained in red, and the results are represented in FIG. 1.

The target in test [2] is T1, caspase-1 (Homo sapiens, UniProt P29466).
T1 construct: p10 and p20 subunits (Thornberry, N. A. et al, Nature, 1992, 356, 768) were expressed in E. coli; made in house; host or cells: E. coli
T1 sequence (P29466 120-297 limits assumed): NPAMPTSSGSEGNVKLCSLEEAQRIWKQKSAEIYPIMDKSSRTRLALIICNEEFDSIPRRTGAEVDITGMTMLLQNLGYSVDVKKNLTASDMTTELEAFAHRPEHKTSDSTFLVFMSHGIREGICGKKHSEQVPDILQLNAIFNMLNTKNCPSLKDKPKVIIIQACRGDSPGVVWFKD
T1 sequence (P29466 317-404 limits assumed): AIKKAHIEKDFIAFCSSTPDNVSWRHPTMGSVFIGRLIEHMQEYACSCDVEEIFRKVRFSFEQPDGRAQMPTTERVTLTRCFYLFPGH
Nature of the test: Caspase-1 inhibitory effect (fluorescent substrate AcYVAD-AFC). In kind it is biochemical. Particulars: pH 7.5; 25° C., 50 μM AcYVAD-AFC, 10 nM caspase-1; read-out: Caspase-1 Kobs/[I] (converted). As for the experimental part:
(§1) Caspase-1 and caspase-8 known as cysteine proteases in the form of α2β2 were expressed, purified, and activated by modifying a method known in Thornberry, N. A. et al, Nature, 1992, 356, 768. Thornberry, N. A. Methods in Enzymology, 1994, 244, 615. Walker, N. P. C. et al. Cell, 1994, 78, 343, and caspase-9 was also purified by a similar method, and the inhibitory activity against them was tested. Briefly describing, p10 and p20 subunits (Thornberry, N. A. et al, Nature, 1992, 356, 768) were expressed in E. coli and purified by nickel column and anionic exchange chromatography to give caspase-1, caspase-8 and caspase-9. The fluorescent substrate AcYVAD-AFC for thus obtained caspase-1, AcDEVD-AFC for caspase-8, and AcLEHD-AFC for caspase-9 were used for determining specific activity of the synthesized inhibitors. The enzyme reaction was carried out at 25° C. with various concentrations of the inhibitors in a buffer solution containing 50 mM HEPES(pH 7.50), 10% (w/v) sucrose, 0.1% (w/v) CHAPS, 100 mM NaCl, 1 mM EDTA, and 10 mM DTT in the presence of 50 μM AcYVAD-AFC for 10 nM caspase-1, 50 μM AcDEVD-AFC for 2.1 nM caspase-8, and 150 μM AcLEHD-AFC for 200 nM caspase-9. The inhibitory constants Ki and Kobs of the inhibitors were determined by measuring the reaction velocity with the time lapse using a fluorescent spectrometer and by obtaining the initial rate constant. Ki was calculated from the Lineweaver Burk Plot, and Kobs from the following Equation 1. Kobs=−ln(1−At/Aoo)/t Equation 1
At means cleavate rate (%) at time t, and
Aoo means the maximum cleavage rate (%).
Spectra MAX GeminiXS Fluorescent Spectrometer of Molecular Device Co. was used at the excitation wavelength of 405 nm and the emission wavelength of […].

The target in test [3] is T2, caspase-8 (Homo sapiens, UniProt Q14790).
T2 construct: p10 and p20 subunits (Thornberry, N. A. et al, Nature, 1992, 356, 768) were expressed in E. coli; made in house; host or cells: E. coli
T2 sequence (Q14790 217-374 limits assumed, species assumed): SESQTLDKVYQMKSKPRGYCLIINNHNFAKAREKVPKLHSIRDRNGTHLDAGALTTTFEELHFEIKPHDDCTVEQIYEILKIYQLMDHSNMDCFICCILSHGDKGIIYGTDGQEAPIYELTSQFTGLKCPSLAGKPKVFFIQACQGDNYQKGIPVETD
T2 sequence (Q14790 385-479 limits assumed, species assumed): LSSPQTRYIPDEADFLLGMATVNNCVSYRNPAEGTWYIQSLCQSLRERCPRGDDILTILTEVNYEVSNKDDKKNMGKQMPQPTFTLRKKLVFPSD
Description: Caspase-8 inhibitory effect (fluorescent substrate AcDEVD-AFC). The test is classed as biochemical. The method, boiled down:
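E. coli–expressed p10/p20 caspase-8, 2.1 nM, with 50 μM Ac-DEVD-AFC at 25 °C in 50 mM HEPES pH 7.50, sucrose, CHAPS, NaCl, EDTA, 10 mM DTT over various inhibitor concentrations. Initial rates by fluorescence (ex 405 / em 505); Ki from Lineweaver-Burk plot, Kobs from time-course cleavage equation.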

In test [4] the target is T3, caspase-9 (Homo sapiens, UniProt P55211).
T3 construct: p10 and p20 subunits (Thornberry, N. A. et al, Nature, 1992, 356, 768) were expressed in E. coli; made in house; host or cells: E. coli
T3 sequence (P55211 1-315 limits assumed): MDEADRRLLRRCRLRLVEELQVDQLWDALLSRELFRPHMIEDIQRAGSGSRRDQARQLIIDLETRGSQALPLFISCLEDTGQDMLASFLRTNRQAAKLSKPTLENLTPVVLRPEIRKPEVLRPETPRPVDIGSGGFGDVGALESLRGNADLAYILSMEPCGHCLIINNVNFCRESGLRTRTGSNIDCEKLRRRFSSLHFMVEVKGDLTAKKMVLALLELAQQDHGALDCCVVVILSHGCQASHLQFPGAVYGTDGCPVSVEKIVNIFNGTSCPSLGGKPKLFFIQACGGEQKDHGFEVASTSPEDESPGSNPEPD
T3 sequence (P55211 331-416 limits assumed): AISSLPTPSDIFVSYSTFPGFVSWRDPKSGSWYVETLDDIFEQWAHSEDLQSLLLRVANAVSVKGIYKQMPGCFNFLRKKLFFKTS
Description: Caspase-9 inhibitory effect (fluorescent substrate AcLEHD-AFC). The test is classed as biochemical. Particulars: pH 7.5; 25° C., 150 μM AcLEHD-AFC, 200 nM caspase-9; read-out: Caspase-9 Kobs/[I] (converted). On the procedure:
as §1, with “The enzyme reaction was carried out at 25° C. with various concentrations of the inhibitors in a buffer solution containing 50 mM HEPES(pH 7.50), 10% (w/v) sucrose, 0.1% (w/v) CHAPS, 100 mM NaCl, 1 mM EDTA, and 10 mM DTT in the presence of 50 μM AcYVAD-AFC for 10 nM caspase-1, 50 μM AcDEVD-AFC for 2.1 nM caspase-8, and 150 μM AcLEHD-AFC for 200 nM caspase-9.” left out, “Kobs=−ln(1−At/Aoo)/t Equation 1” left out

With `CC(C)[C@@]1(C(=O)NC(CC(=O)O)C(=O)CF)CC(c2nccc3ccccc23)=NO1` (stereo partly drawn) [Iii, 5-Fluoro-3-({[(5R)-5-isopropyl-3-(1-isoquinolinyl)-4,5-dihydro-5-isoxazolyl]carbonyl}amino)-4-oxopentanoic acid], the “fibrosis by Sirius Red staining” value in test [1] is recorded as “almost no fibrosis”. Further, the kinact/KI was 18300 M⁻¹ s⁻¹ in test [2]; 217000 M⁻¹ s⁻¹ in test [3] (pH 7.5, 25° C., 50 μM AcDEVD-AFC, 2.1 nM caspase-8, read-out: Caspase-8 Kobs/[I] (converted)); 3330 M⁻¹ s⁻¹ in test [4]. Moreover, the “increased inhibitory activity against caspase-8 compared with LB84068MP” value in test [3] is given as ≥ 10 times.
